Reference: patent publication US20100209345A1, “Fluorinated Ligands for Targeting Peripheral Benzodiazepine Receptors” (Australian Nuclear Science & Technology Organisation, priority 2006, published 2010)

Experiments:
[1] = Biodistribution of 18F-labelled tracers in rats; format: in vivo
Outline: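 Sprague-Dawley rats received 18F tracer, and brain and peripheral tissues were analysed at 15 and 30 min and 1 and 4 h post-injection. For specificity, rats were pretreated 5 min beforehand with PK11195 or Ro 5-4864 (PBR) or flumazenil (CBR), each at 1 mg/kg.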

[2] = molecular target: central benzodiazepine receptors; test: In vitro binding, [3H]-Flumazenil, brain cortex membrane preparation; details: [3H]-Flumazenil (2 nM), 25° C., 45 min, read-out: CBR IC50
Outline: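 Brain cortex membranes bound with [3H]-flumazenil; non-specific binding defined by 20 μM flumazenil. Filtration on GF/B, washes in ice-cold 50 mM Tris/HCl pH 7.4, bound counts by scintillation, IC50 derived from displacement.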

[3] = SD rats, 15 min, decay correction not stated
[4] = SD rats, 4 hours, decay correction not stated
[5] = rats, 15 min, corrected for decay of 18F
[6] = rats, 15 min, not corrected for decay of 18F
[7] = rats, 30 min, corrected for decay of 18F
[8] = rats, 30 min, not corrected for decay of 18F
[9] = rats, 60 min (1 hour), not corrected for decay of 18F
[10] = rats, 60 min, corrected for decay of 18F
[11] = rats, 4 hours, corrected for decay of 18F
[12] = rats, 4 hours, not corrected for decay of 18F

CCN(CC)C(=O)Cc1c(-c2ccc(OCCCF)cc2)nc2ccc(Cl)cn12 [PBR111, 2-(2-(4-(3-fluoropropoxy)phenyl)-6-chloroimidazo[1,2-a]pyridin-3-yl)-N,N-diethylacetamide]
Biodistribution: Blood [1, 3]: 0.4 % ID/g
Biodistribution: Bone [1, 3]: 0.87 % ID/g
Biodistribution: Kidney [1, 3]: 3.2 % ID/g
Biodistribution: Olfactory bulbs [1, 3]: 0.64 % ID/g
Biodistribution: Adrenals ([1]; SD rats, 30 min, decay correction not stated): 6.5 % ID/g
Biodistribution: Adrenals [1, 4]: 16 % ID/g
Biodistribution: Blood [1, 4]: 0.1 % ID/g
Biodistribution: Bone [1, 4]: 4.3 % ID/g
Biodistribution: Kidney [1, 4]: 2.3 % ID/g
Biodistribution: Olfactory bulbs [1, 4]: 0.41 % ID/g
Biodistribution: Bone [1, 5]: 0.87 ± 0.12 % ID/g
Biodistribution: Heart [1, 5]: 6.76 ± 0.82 % ID/g
Biodistribution: Lungs [1, 5]: 14.39 ± 2.19 % ID/g
Biodistribution: Skin [1, 5]: 0.34 ± 0.03 % ID/g
Biodistribution: Adrenals [1, 6]: 8.36 ± 2.02 % ID/g
Biodistribution: Bladder [1, 6]: 0.67 ± 0.36 % ID/g
Biodistribution: Blood [1, 6]: 0.48 ± 0.11 % ID/g
Biodistribution: Bone [1, 6]: 0.99 ± 0.18 % ID/g
Biodistribution: Brain [1, 6]: 0.31 ± 0.06 % ID/g
Biodistribution: GIT [1, 6]: 1.21 ± 0.11 % ID/g
Biodistribution: Heart [1, 6]: 7.75 ± 1.08 % ID/g
Biodistribution: Kidney [1, 6]: 5.18 ± 0.67 % ID/g
Biodistribution: Liver [1, 6]: 1.54 ± 0.20 % ID/g
Biodistribution: Lungs [1, 6]: 16.45 ± 2.81 % ID/g
Biodistribution: Muscle [1, 6]: 0.68 ± 0.16 % ID/g
Biodistribution: Olfactory bulbs [1, 6]: 0.74 ± 0.14 % ID/g
Biodistribution: Pancreas [1, 6]: 2.33 ± 0.33 % ID/g
Biodistribution: Skin [1, 6]: 0.39 ± 0.06 % ID/g
Biodistribution: Spleen [1, 6]: 8.25 ± 2.25 % ID/g
Biodistribution: Stomach [1, 6]: 0.95 ± 0.23 % ID/g
Biodistribution: Testes [1, 6]: 0.35 ± 0.05 % ID/g
Biodistribution: Thymus [1, 6]: 1.07 ± 0.23 % ID/g
Biodistribution: Thyroid [1, 6]: 11.40 ± 0.33 % ID/g
Biodistribution: Bone [1, 7]: 1.22 ± 0.10 % ID/g
Biodistribution: Heart [1, 7]: 6.63 ± 0.35 % ID/g
Biodistribution: Lungs [1, 7]: 8.41 ± 0.77 % ID/g
Biodistribution: Skin [1, 7]: 0.37 ± 0.02 % ID/g
Biodistribution: Adrenals [1, 8]: 9.06 ± 3.47 % ID/g
Biodistribution: Bladder [1, 8]: 0.76 ± 0.16 % ID/g
Biodistribution: Blood [1, 8]: 0.33 ± 0.11 % ID/g
Biodistribution: Bone [1, 8]: 1.35 ± 0.27 % ID/g
Biodistribution: Brain [1, 8]: 0.19 ± 0.04 % ID/g
Biodistribution: GIT [1, 8]: 1.38 ± 0.36 % ID/g
Biodistribution: Heart [1, 8]: 7.30 ± 0.90 % ID/g
Biodistribution: Kidney [1, 8]: 4.77 ± 1.05 % ID/g
Biodistribution: Liver [1, 8]: 0.94 ± 0.28 % ID/g
Biodistribution: Lungs [1, 8]: 9.27 ± 1.60 % ID/g
Biodistribution: Muscle [1, 8]: 0.62 ± 0.15 % ID/g
Biodistribution: Olfactory bulbs [1, 8]: 0.60 ± 0.14 % ID/g
Biodistribution: Pancreas [1, 8]: 1.49 ± 0.29 % ID/g
Biodistribution: Skin [1, 8]: 0.41 ± 0.06 % ID/g
Biodistribution: Spleen [1, 8]: 6.54 ± 1.35 % ID/g
Biodistribution: Stomach [1, 8]: 1.18 ± 0.34 % ID/g
Biodistribution: Testes [1, 8]: 0.38 ± 0.07 % ID/g
Biodistribution: Thymus [1, 8]: 1.23 ± 0.47 % ID/g
Biodistribution: Thyroid [1, 8]: 13.24 ± 4.62 % ID/g
Biodistribution: Adrenals [1, 9]: 12.11 ± 3.32 % ID/g
Biodistribution: Bladder [1, 9]: 1.24 ± 0.29 % ID/g
Biodistribution: Blood [1, 9]: 0.24 ± 0.08 % ID/g
Biodistribution: Bone [1, 9]: 2.41 ± 0.24 % ID/g
Biodistribution: Brain [1, 9]: 0.17 ± 0.04 % ID/g
Biodistribution: GIT [1, 9]: 1.89 ± 0.37 % ID/g
Biodistribution: Heart [1, 9]: 8.41 ± 1.91 % ID/g
Biodistribution: Kidney [1, 9]: 5.08 ± 1.23 % ID/g
Biodistribution: Liver [1, 9]: 0.82 ± 0.22 % ID/g
Biodistribution: Lungs [1, 9]: 7.29 ± 2.12 % ID/g
Biodistribution: Muscle [1, 9]: 0.55 ± 0.11 % ID/g
Biodistribution: Olfactory bulbs [1, 9]: 0.65 ± 0.14 % ID/g
Biodistribution: Pancreas [1, 9]: 1.24 ± 0.36 % ID/g
Biodistribution: Skin [1, 9]: 0.54 ± 0.07 % ID/g
Biodistribution: Spleen [1, 9]: 6.72 ± 1.91 % ID/g
Biodistribution: Stomach [1, 9]: 0.91 ± 0.06 % ID/g
Biodistribution: Testes [1, 9]: 0.51 ± 0.09 % ID/g
Biodistribution: Thymus [1, 9]: 1.39 ± 0.29 % ID/g
Biodistribution: Thyroid [1, 9]: 13.04 ± 3.22 % ID/g
Biodistribution: Bone [1, 10]: 2.04 ± 0.09 % ID/g
Biodistribution: Lungs [1, 10]: 5.68 ± 1.03 % ID/g
Biodistribution: Skin [1, 10]: 0.46 ± 0.02 % ID/g
Biodistribution: Bone [1, 11]: 4.32 ± 0.33 % ID/g
Biodistribution: Lungs [1, 11]: 3.02 ± 0.39 % ID/g
Biodistribution: Skin [1, 11]: 0.63 ± 0.04 % ID/g
Biodistribution: Adrenals [1, 12]: 17.81 ± 3.61 % ID/g
Biodistribution: Bladder [1, 12]: 1.33 ± 0.17 % ID/g
Biodistribution: Blood [1, 12]: 0.12 ± 0.02 % ID/g
Biodistribution: Bone [1, 12]: 4.86 ± 0.86 % ID/g
Biodistribution: Brain [1, 12]: 0.10 ± 0.02 % ID/g
Biodistribution: GIT [1, 12]: 2.01 ± 0.27 % ID/g
Biodistribution: Heart [1, 12]: 4.92 ± 0.66 % ID/g
Biodistribution: Kidney [1, 12]: 2.57 ± 0.48 % ID/g
Biodistribution: Liver [1, 12]: 0.44 ± 0.07 % ID/g
Biodistribution: Lungs [1, 12]: 3.37 ± 0.40 % ID/g
Biodistribution: Muscle [1, 12]: 0.19 ± 0.05 % ID/g
Biodistribution: Olfactory bulbs [1, 12]: 0.47 ± 0.06 % ID/g
Biodistribution: Pancreas [1, 12]: 0.61 ± 0.10 % ID/g
Biodistribution: Skin [1, 12]: 0.71 ± 0.07 % ID/g
Biodistribution: Spleen [1, 12]: 3.45 ± 0.43 % ID/g
Biodistribution: Stomach [1, 12]: 0.51 ± 0.06 % ID/g
Biodistribution: Testes [1, 12]: 0.67 ± 0.08 % ID/g
Biodistribution: Thymus [1, 12]: 1.88 ± 0.40 % ID/g
Biodistribution: Thyroid [1, 12]: 8.91 ± 1.19 % ID/g
IC50 [2]: 1590 nM
